Source: BindingDB's records for doi:10.1021/acs.jmedchem.0c00337 (Peking Union Medical College, 2020)
Blank lines part the entries; values can stand above or below the molecule they belong to.

Experiments:
[1] = Reversal of Pgp-mediated DOX resistance in human SW620/AD300 cells assessed as potentiation of DOX-induced cytotoxicity by measuring DOX IC50 at 1 uM incubated for 48 hrs by SRB assay (Rvb = 33.39 +/- 7.08 uM)
[2] = Reversal of Pgp-mediated DOX resistance in human SW620/AD300 cells assessed as concentration required to show half of DOX IC50 incubated for 48 hrs by SRB assay

Compound: COc1cc2c(cc1OC)CN(CCc1ccc(NC(=O)/C=C/c3c(-c4ccccc4)n(C)c4ncccc34)cc1)CC2
IC50 [1]: 820 nM

EC50 [2]: 103 nM
Compound: COc1cc2c(cc1OC)CN(CCc1ccc(NC(=O)/C=C/c3ccc(Oc4ccc(-c5cccnc5)cc4)nc3)cc1)CC2
IC50 [1]: 390 nM

Compound: COc1cc2c(cc1OC)CN(CCc1ccc(NC(=O)/C=C/c3cc(-c4ccccn4)cc(C)c3Oc3ccccn3)cc1)CC2
IC50 [1]: 550 nM

Compound: COc1cc2c(cc1OC)CN(CCc1ccc(NC(=O)/C=C/c3ccc(Oc4cc(O)c(-c5ccccn5)c(O)c4)nc3)cc1)CC2
IC50 [1]: 780 nM

Compound: COc1cc2c(cc1OC)CN(CCc1ccc(NC(=O)/C=C/c3cccc(Oc4ccc(-c5ccccn5)cc4)n3)cc1)CC2
IC50 [1]: 990 nM

Compound: COc1cc2c(cc1OC)CN(CCc1ccc(NC(=O)/C=C/c3ccc(Oc4ccc(-c5ccccn5)c(C)c4)nc3)cc1)CC2
IC50 [1]: 490 nM

Compound: COc1cc2c(cc1OC)CN(CCc1ccc(NC(=O)C(c3c(-c4ccccc4)n(C)c4ccccc34)N3CCOCC3)cc1)CC2 (configuration not stated)
IC50 [1]: 550 nM

Compound: COc1cc2c(cc1OC)CN(CCc1ccc(NC(=O)C(O)c3c(-c4ccccc4)n(C)c4ccccc34)cc1)CC2 (configuration not stated)
IC50 [1]: 1100 nM

EC50 [2]: 51 nM
Compound: COc1cc2c(cc1OC)CN(CCc1ccc(NC(=O)/C=C/c3ccc(Oc4ccc(-c5ccccn5)c(C#N)c4)nc3)cc1)CC2
IC50 [1]: 610 nM

Compound: COc1cc2c(cc1OC)CN(CCc1ccc(NC(=O)/C=C/c3c(-c4ccccc4)oc4ccccc4c3=O)cc1)CC2
IC50 [1]: 1360 nM

Compound: COc1ccc2c(C)c(CC(=O)Nc3ccc(CCN4CCc5cc(OC)c(OC)cc5C4)cc3)c(=O)oc2c1
IC50 [1]: 1970 nM

Compound: COc1cc2c(cc1OC)CN(CCc1ccc(NC(=O)/C=C/c3ccc(Oc4c(I)cc(-c5ccccn5)cc4I)nc3)cc1)CC2
IC50 [1]: 1180 nM

Compound: COc1cc2c(cc1OC)CN(CCc1ccc(NC(=O)/C=C/c3ccc(Oc4ccc(-c5ccccn5)cc4C)nc3)cc1)CC2
IC50 [1]: 740 nM

Compound: COc1cc2c(cc1OC)CN(CCc1ccc(NC(=O)C3CC3c3ccc(Oc4ccc(-c5ccccn5)cc4)nc3)cc1)CC2 (configuration not stated)
IC50 [1]: 760 nM

Compound: COc1cc2c(cc1OC)CN(CCc1ccc(NC(=O)/C=C/c3ccc(Oc4cccc(-c5ccccn5)c4)nc3)cc1)CC2
IC50 [1]: 750 nM

Compound: COc1cc2c(cc1OC)CN(CCc1ccc(NC(=O)/C=C/c3ccc(Oc4ccc(-c5ccccn5)c(O)c4)nc3)cc1)CC2
IC50 [1]: 820 nM

Compound: COc1cc2c(cc1OC)CN(CCc1ccc(NC(=O)/C=C/c3ccc(Oc4ccc(-c5ccccn5)cc4Br)nc3)cc1)CC2
IC50 [1]: 700 nM

Compound: COc1cc2c(cc1OC)CN(CCc1ccc(NC(=O)/C=C/c3ccc(Oc4ccc(-c5ccccn5)cc4I)nc3)cc1)CC2
IC50 [1]: 760 nM

EC50 [2]: 37 nM
Compound: COc1cc2c(cc1OC)CN(CCc1ccc(NC(=O)/C=C/c3ccc(Oc4ccc(-c5ccccn5)c(Cl)c4)nc3)cc1)CC2
IC50 [1]: 560 nM
